Reference: patent publication US12071411B2, “Inhibitors of HIF-2α and methods of use thereof” (ARCUS BIOSCIENCES, INC., priority 2021, dated 2024)

How the values were obtained:
[1] = biological target: T1, HIF-2α (Homo sapiens, UniProt Q99814); test: HIF-2α Luciferase Reporter Assay (serum free) in HIF-Luc-786-0 cells; assay type: cell-based; conditions: Opti-MEM, 786-0 reporter cells, 20 hours incubation
Method in brief: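 786-0 cells stably transduced with HIF luciferase reporter, 20,000 cells/well in serum-free Opti-MEM, compounds (50 uM downward, 1% DMSO) 20 h at 37 °C. ONE-Glo luminescence normalized to DMSO and no-cell controls; IC50 from four-parameter fit.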

[2] = biological target: T1, HIF-2α; test: HIF-2α Luciferase Reporter Assay (serum), HRE-luciferase 786-0 cells in 100% human serum; assay type: cell-based; conditions: for IC50: 100% human serum, 786-0 reporter cells, overnight incubation, read-out: Serum Potency; for Serum Shift (approximate): ratio of IC50 in 100% serum to IC50 in serum free conditions
Method in brief: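 786-0 cells stably expressing an HRE-luciferase reporter were plated and rested 3 h. They were then treated overnight at 37 °C with compound diluted in 100% human serum. Serum was replaced with Opti-MEM, ONE-Glo luminescence was read, and IC50 came from a 4-parameter logistic fit.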

T1 sequence (Q99814 whole entry): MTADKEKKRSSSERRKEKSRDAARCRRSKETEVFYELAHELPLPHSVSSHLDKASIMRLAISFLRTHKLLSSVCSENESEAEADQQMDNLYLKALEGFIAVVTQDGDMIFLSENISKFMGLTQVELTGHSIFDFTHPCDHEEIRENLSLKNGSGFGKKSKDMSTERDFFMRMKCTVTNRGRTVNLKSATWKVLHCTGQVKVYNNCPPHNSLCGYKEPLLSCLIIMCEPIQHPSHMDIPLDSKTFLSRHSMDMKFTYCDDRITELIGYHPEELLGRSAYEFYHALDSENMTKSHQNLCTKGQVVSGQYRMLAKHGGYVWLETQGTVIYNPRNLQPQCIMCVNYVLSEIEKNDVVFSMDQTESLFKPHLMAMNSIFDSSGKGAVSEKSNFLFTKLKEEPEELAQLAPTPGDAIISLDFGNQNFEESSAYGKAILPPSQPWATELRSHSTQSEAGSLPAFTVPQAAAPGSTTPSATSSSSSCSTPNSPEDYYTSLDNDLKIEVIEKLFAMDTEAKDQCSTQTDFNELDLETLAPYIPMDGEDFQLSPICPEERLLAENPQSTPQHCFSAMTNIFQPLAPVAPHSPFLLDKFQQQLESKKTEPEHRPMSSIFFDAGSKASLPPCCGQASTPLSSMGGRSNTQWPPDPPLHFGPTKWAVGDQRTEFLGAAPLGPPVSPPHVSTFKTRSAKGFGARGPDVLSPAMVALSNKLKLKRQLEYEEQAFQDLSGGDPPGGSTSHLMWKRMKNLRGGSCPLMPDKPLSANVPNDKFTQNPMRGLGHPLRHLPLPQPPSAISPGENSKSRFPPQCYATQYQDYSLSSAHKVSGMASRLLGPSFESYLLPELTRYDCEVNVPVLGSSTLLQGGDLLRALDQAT

| Structure (SMILES) | IC50 [1] | IC50 [2] | Serum Shift (approximate) [2] |
| --- | --- | --- | --- |
| O=S(=O)(CCn1nc(C(F)(F)F)c2c1CCC(F)(F)[C@H]2O)C(F)(F)F [Example 8, (4S)-5,5-difluoro-3-(trifluoromethyl)-1-[2-(trifluoromethylsulfonyl)ethyl]-6,7-dihydro-4H-indazol-4-ol] | < 0.1 µM | 0.1 to 1 µM | 4 |
| O[C@H]1c2c(C(F)(F)F)nn(CCc3ccoc3)c2CC1(F)F [Example 78, (4S)-5,5-difluoro-1-[2-(furan-3-yl)ethyl]-3-(trifluoromethyl)-1H,4H,5H,6H-cyclopenta[c]pyrazol-4-ol] | < 0.1 µM | > 1 µM | 8 |
| O[C@H]1c2c(C(F)(F)F)nn([C@@H]3CCCC(F)(F)C3)c2[C@@H](F)[C@H]1F (single isomer, unassigned) [136/137 DIAST-2] | < 0.1 µM | 0.1 to 1 µM | 7 |
| O[C@H]1c2c(C(F)(F)F)nn(CCCC(F)(F)F)c2[C@H](F)C1(F)F (single isomer, unassigned) [Example 124] | < 0.1 µM | > 1 µM | 11 |
| O[C@H]1c2c(C(F)(F)F)nn([C@@H]3C[C@@H](F)[C@@H](F)[C@@H](F)C3)c2CC1(F)F [Example 70, (4S)-5,5-difluoro-1-[(3R,5S)-3,4,5-trifluorocyclohexyl]-3-(trifluoromethyl)-4,6-dihydrocyclopenta[c]pyrazol-4-ol] | 0.1 to 1 µM | 0.1 to 1 µM | 0 |
| O[C@H]1c2c(C(F)(F)F)nn([C@@H]3C[C@H](F)C[C@H](F)C3)c2CC1(F)F [Example 89, (4S)-1-[(3R,5S)-3,5-difluorocyclohexyl]-5,5-difluoro-3-(trifluoromethyl)-4,6-dihydrocyclopenta[c]pyrazol-4-ol] | < 0.1 µM | 0.1 to 1 µM | 7 |
| O[C@H]1c2c(C(F)(F)F)nn(CCCOC(F)(F)F)c2CCC1(F)F [Example 30, (4S)-5,5-difluoro-1-[3-(trifluoromethoxy)propyl]-3-(trifluoromethyl)-6,7-dihydro-4H-indazol-4-ol] | < 0.1 µM | 0.1 to 1 µM | 8 |
| CS(=O)(=O)CCn1nc(C(F)(F)F)c2c1CC(F)(F)[C@H]2O [Example 56, (4S)-5,5-difluoro-1-(2-methylsulfonylethyl)-3-(trifluoromethyl)-4,6-dihydrocyclopenta[c]pyrazol-4-ol] | 0.1 to 1 µM | 0.1 to 1 µM | 2 |
| O[C@H]1c2c(C(F)(F)F)nn([C@@H]3CC[C@@H](F)[C@@H](F)C3)c2[C@@H](F)C1(F)F [Example 156, (4S,6R)-1-[(1R,3S,4R)-3,4-difluorocyclohexyl]-5,5,6-trifluoro-3-(trifluoromethyl)-4,6-dihydrocyclopenta[c]pyrazol-4-ol] | < 0.1 µM | 0.1 to 1 µM | 8 |
| CC(CCn1nc(C(F)(F)F)c2c1CCC(F)(F)[C@H]2O)OC(F)(F)F (stereo partly drawn) [Example 14, (4S)-5,5-difluoro-1-[3-(trifluoromethoxy)butyl]-3-(trifluoromethyl)-6,7-dihydro-4H-indazol-4-ol] | < 0.1 µM | < 0.1 µM | 6 |
| O=S1(=O)CC(Cn2nc(C(F)(F)F)c3c2[C@H](F)C(F)(F)[C@H]3O)C1 (single isomer, unassigned) [144/145 DIAST-1] | 0.1 to 1 µM | > 1 µM | 3 |
| O[C@H]1c2c(C(F)(F)F)nn(C3COCC(F)(F)C3)c2CC1(F)F (stereo partly drawn) [Example 85, (4S)-1-(5,5-difluorooxan-3-yl)-5,5-difluoro-3-(trifluoromethyl)-1H,4H,5H,6H-cyclopenta[c]pyrazol-4-ol] | 0.1 to 1 µM | > 1 µM | 6 |
| O[C@H]1c2c(C(F)(F)F)nn([C@@H]3CCC[C@H](OC(F)F)C3)c2CC1(F)F (racemic) [Example 112, (4S)-1-[(1R,3S)-3-(difluoromethoxy)cyclohexyl]-5,5-difluoro-3-(trifluoromethyl)-1H,4H,5H,6H-cyclopenta[c]pyrazol-4-ol and (4S)-1-[(1S,3R)-3-(difluoromethoxy)cyclohexyl]-5,5-difluoro-3-(trifluoromethyl)-1H,4H,5H,6H-cyclopenta[c]pyrazol-4-ol] | < 0.1 µM | > 1 µM | 17 |
| O[C@H]1c2c(C(F)(F)F)nn([C@H]3C[C@@H](F)[C@@H](F)[C@@H](F)C3)c2[C@@H](F)[C@H]1F [Example 143, (4S,5S,6R)-5,6-difluoro-1-[(3R,5S)-3,4,5-trifluorocyclohexyl]-3-(trifluoromethyl)-5,6-dihydro-4H-cyclopenta[c]pyrazol-4-ol] | 0.1 to 1 µM | > 1 µM | 9 |
| O=S1(=O)CCCC(n2nc(C(F)(F)F)c3c2CC(F)(F)[C@H]3O)C1 (stereo partly drawn) [Example 86, 3-[(4S)-5,5-difluoro-4-hydroxy-3-(trifluoromethyl)-1H,4H,5H,6H-cyclopenta[c]pyrazol-1-yl]-1λ^6-thiane-1,1-dione] | 0.1 to 1 µM | 0.1 to 1 µM | 3 |
| CCC(CCn1nc(C(F)(F)F)c2c1CCC(F)(F)[C@H]2O)C(F)(F)F (stereo partly drawn) [Example 43, (4S)-5,5-difluoro-3-(trifluoromethyl)-1-[3-(trifluoromethyl)pentyl]-6,7-dihydro-4H-indazol-4-ol] | 0.1 to 1 µM | > 1 µM | 17 |
| O[C@H]1c2c(C(F)(F)F)nn([C@@H]3C[C@@H]4[C@H](C3)C4(F)F)c2CC1(F)F (single isomer, unassigned) [125/126 DIAST-2] | 0.1 to 1 µM | > 1 µM | 5 |
| O[C@H]1c2c(C(F)(F)F)nn(C3CCO[C@H](C(F)(F)F)C3)c2CC1(F)F (single isomer, unassigned) [94/95 DIAST-2] | < 0.1 µM | > 1 µM | 23 |
| CO[C@H]1C[C@H](n2nc(C(F)(F)F)c3c2CC(F)(F)[C@H]3O)CCC1(F)F (racemic) [Example 111, (4S)-1-[(1R,3S)-4,4-difluoro-3-methoxycyclohexyl]-5,5-difluoro-3-(trifluoromethyl)-1H,4H,5H,6H-cyclopenta[c]pyrazol-4-ol and (4S)-1-[(1S,3R)-4,4-difluoro-3-methoxycyclohexyl]-5,5-difluoro-3-(trifluoromethyl)-1H,4H,5H,6H-cyclopenta[c]pyrazol-4-ol] | < 0.1 µM | > 1 µM | 9 |
| O=S1(=O)CC(Cn2nc(C(F)(F)F)c3c2CC(F)(F)[C@H]3O)C1 [Example 57, (4S)-1-[(1,1-dioxothietan-3-yl)methyl]-5,5-difluoro-3-(trifluoromethyl)-4,6-dihydrocyclopenta[c]pyrazol-4-ol] | 0.1 to 1 µM | 0.1 to 1 µM | 2 |
| O[C@H]1c2c(C(F)(F)F)nn([C@@H]3C[C@@H](F)[C@@H](F)[C@@H](F)C3)c2[C@@H](F)C1(F)F (single isomer, unassigned) [146/147 DIAST-2] | < 0.1 µM | 0.1 to 1 µM | 8 |
| O[C@H]1c2c(C(F)(F)F)nn(C[C@H](F)C3CC3)c2CCC1(F)F (single isomer, unassigned) [26/27 DIAST-2] | 0.1 to 1 µM | > 1 µM | 10 |
| O[C@H]1c2c(C(F)(F)F)nn(C3CC4(C3)CC(F)(F)C4)c2C[C@H]1F [Example 67, (4S,5R)-1-{6,6-difluorospiro[3.3]heptan-2-yl}-5-fluoro-3-(trifluoromethyl)-4,6-dihydrocyclopenta[c]pyrazol-4-ol] | 0.1 to 1 µM | 0.1 to 1 µM | 7 |
| O[C@H]1c2c(C(F)(F)F)nn(CCSC(F)F)c2CCC1(F)F [Example 18, (4S)-1-[2-(difluoromethylsulfanyl)ethyl]-5,5-difluoro-3-(trifluoromethyl)-6,7-dihydro-4H-indazol-4-ol] | 0.1 to 1 µM | 0.1 to 1 µM | 4 |
| O[C@H]1c2c(C(F)(F)F)nn([C@@H]3CC[C@@H](F)[C@@H](F)C3)c2[C@H](F)C1(F)F [Example 153, (4S,6S)-1-[(1R,3S,4R)-3,4-difluorocyclohexyl]-5,5,6-trifluoro-3-(trifluoromethyl)-4,6-dihydrocyclopenta[c]pyrazol-4-ol] | 0.1 to 1 µM | > 1 µM | 18 |
| O[C@H]1c2c(C(F)(F)F)nn(CCCOC(F)(F)F)c2C[C@@H]1F [Example 63, (4S,5S)-5-fluoro-1-[3-(trifluoromethoxy)propyl]-3-(trifluoromethyl)-5,6-dihydro-4H-cyclopenta[c]pyrazol-4-ol] | 0.1 to 1 µM | > 1 µM | 4 |
| CO[C@H](CCn1nc(C(F)(F)F)c2c1[C@@H](F)C(F)(F)[C@H]2O)C(F)(F)F (single isomer, unassigned) [148/149 DIAST-2] | < 0.1 µM | 0.1 to 1 µM | 12 |
| O[C@H]1c2c(C(F)(F)F)nn(CCCC(F)(F)F)c2CC[C@@H]1F [Example 52, (4S,5S)-5-fluoro-1-(4,4,4-trifluorobutyl)-3-(trifluoromethyl)-4,5,6,7-tetrahydroindazol-4-ol] | 0.1 to 1 µM | > 1 µM | 7 |
| O[C@H]1c2c(C(F)(F)F)nn(C3CCC(F)(F)CC3)c2CC1(F)F [Example 53, (4S)-1-(4,4-difluorocyclohexyl)-5,5-difluoro-3-(trifluoromethyl)-4,6-dihydrocyclopenta[c]pyrazol-4-ol] | < 0.1 µM | 0.1 to 1 µM | 7 |
